These are literature values, as cited in US20170368087A1, “PHARMACEUTICAL COMPOSITION COMPRISING TOPIRAMATE” (INNOVACO PHARMACEUTICALS, INC., priority 2014, published 2017).

For the molecule `CC1(C)O[C@@H]2[C@@H](CO[C@@]3(COS(N)(=O)=O)OC(C)(C)O[C@@H]23)O1` [Topiramate, 2,3:4,5-Di-O-isopropylidene-β-D-fructo-pyranose sulfamate], the “solubility in acetone, dimethyl sulfoxide, ethanol, and alkaline solutions containing sodium hydroxide or sodium phosphate” value is on record as “freely soluble”. Under “room temperature”, the solubility in water entry is on record as “approximately 9.8 mg/mL”.
